This is an account of results in patent publication US9096627B2, “Hydroxamic acid derivatives” (Purdue Pharmaceutical Products L.P., priority 2009, dated 2015).

One experiment has as its target HDAC-2 (Homo sapiens (Human), UniProt Q92769). Briefly: biochemical. The format is biochemical. As to the method: (§1) Hydroxamic acid is a well know metal-chelating agent, especially for Zn atom. […] Many of these metalloenzymes are well known important disease target, such as HDAC and MMP. […] The following protocol is used to assay the compounds of the invention against the HDAC enzymes.
(§2) The enzyme stock solution is 4 μg/mL in buffer. The compounds are pre-incubated (2 μl in DMSO diluted to 13 μl in buffer for transfer to assay plate) with enzyme (20 μl of 4 μg/ml) for 10 minutes at room temperature (35 μl pre-incubation volume). The mixture is pre-incubated for 5 minutes at room temperature. The reaction is started by bringing the temperature to 37° C. and adding […] substrate. Total reaction volume is 50 μl. […] Such assays, carried out with a range of doses of test compounds, allow the determination of an approximate IC50 value.

For a further experiment, the target named is HDAC-1 (Homo sapiens (Human), UniProt Q13547). Briefly: Inhibition of histone deacetylase enzymatic activity (Fluor-de-Lys). The format is biochemical. The protocol: as §1, §2
The next experiment has as its target HDAC-10 (Homo sapiens (Human), UniProt Q969S8). The description is as above. The format is biochemical. As to the method: as §1, §2
A further experiment concerns the target HDAC-3 (Homo sapiens (Human), UniProt O15379). The experiment is described as above. The format is biochemical. As to the method: as §1, §2
Another experiment has as its target HDAC-6 (Homo sapiens (Human), UniProt Q9UBN7). The experiment is described as above. The class given is biochemical. As to the method:
as §1, §2

The next experiment addresses HDAC-8 (Homo sapiens (Human), UniProt Q9BY41). Described as above. The format is biochemical. The protocol: as §1, §2
In another experiment the test system is MM1R. Briefly: In vitro anti-proliferation assay (ATPlite luminescence). The format is cell-based. To be noted: MM.1R, 72 hours, 5% FBS, read-out: IC50 cell anti-proliferative assay MM1R. The protocol:
(§3) Cell antiproliferation was assayed by PerkinElmer ATPlite™ Luminescence Assay System. The cancer cell lines were plated at 10 k cells per well in Costar 96-well plates with different concentration of compounds for 72 hours with 5% FBS. After that, one lyophilized substrate solution vial was reconstituted by adding 5 mL of substrate buffer solution and was agitated gently until the solution is homogeneous. 50 μL of mammalian cell lysis solution was added to 100 μL of cell suspension per well of a microplate and the plate was shaken for five minutes in an orbital shaker at 700 rpm. This procedure will lyses the cells and stabilizes the ATP. Next, 50 μL substrate solution was added to the wells and microplate was shaken for five minutes in an orbital shaker at 700 rpm. Finally the luminescence was measured by a PerkinElmer TopCount® Microplate Scintillation Counter. Such assays, carried out with a range of doses of test compounds, allow the determination of an approximate IC50 value for the in vitro cell antiproliferation assay of cancer cell lines.
Background: ATP-based viability assays read luminescence as a measure of living cells.

The subject of the next experiment is MM1S. The experiment is described as above. To be noted: Homo sapiens, MM1.S, 72 hours, 5% FBS, read-out: IC50 cell anti-proliferative assay MM1S. The format is cell-based. The protocol: as §3
The next experiment relates to RPMI8226. The description is as above. The class given is cell-based. To be noted: Homo sapiens, RPMI-8226; RPMI8226, 72 hours, 5% FBS; read-out: IC50 cell anti-proliferative assay RPMI8226. The protocol:
as §3

Chain of HDAC-10 (Q969S8 whole entry, species assumed): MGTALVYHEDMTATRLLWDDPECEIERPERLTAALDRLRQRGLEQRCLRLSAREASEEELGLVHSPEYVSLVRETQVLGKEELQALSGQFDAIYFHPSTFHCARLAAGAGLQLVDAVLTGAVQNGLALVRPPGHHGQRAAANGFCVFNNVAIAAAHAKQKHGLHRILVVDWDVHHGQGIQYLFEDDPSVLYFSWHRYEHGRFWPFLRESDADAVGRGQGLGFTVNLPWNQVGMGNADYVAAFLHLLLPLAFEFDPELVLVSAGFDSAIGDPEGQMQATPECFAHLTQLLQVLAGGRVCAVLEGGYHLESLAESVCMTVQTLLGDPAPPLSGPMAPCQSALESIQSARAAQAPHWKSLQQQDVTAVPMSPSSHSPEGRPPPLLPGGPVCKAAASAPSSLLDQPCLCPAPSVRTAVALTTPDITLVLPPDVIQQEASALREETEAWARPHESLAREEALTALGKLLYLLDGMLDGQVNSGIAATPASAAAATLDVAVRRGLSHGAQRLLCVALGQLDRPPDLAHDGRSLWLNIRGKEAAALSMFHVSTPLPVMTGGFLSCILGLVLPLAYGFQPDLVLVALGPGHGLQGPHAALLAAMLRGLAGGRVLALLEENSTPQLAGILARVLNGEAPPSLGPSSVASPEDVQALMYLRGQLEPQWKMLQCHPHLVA
Chain of HDAC-1 (Q13547 whole entry, species assumed): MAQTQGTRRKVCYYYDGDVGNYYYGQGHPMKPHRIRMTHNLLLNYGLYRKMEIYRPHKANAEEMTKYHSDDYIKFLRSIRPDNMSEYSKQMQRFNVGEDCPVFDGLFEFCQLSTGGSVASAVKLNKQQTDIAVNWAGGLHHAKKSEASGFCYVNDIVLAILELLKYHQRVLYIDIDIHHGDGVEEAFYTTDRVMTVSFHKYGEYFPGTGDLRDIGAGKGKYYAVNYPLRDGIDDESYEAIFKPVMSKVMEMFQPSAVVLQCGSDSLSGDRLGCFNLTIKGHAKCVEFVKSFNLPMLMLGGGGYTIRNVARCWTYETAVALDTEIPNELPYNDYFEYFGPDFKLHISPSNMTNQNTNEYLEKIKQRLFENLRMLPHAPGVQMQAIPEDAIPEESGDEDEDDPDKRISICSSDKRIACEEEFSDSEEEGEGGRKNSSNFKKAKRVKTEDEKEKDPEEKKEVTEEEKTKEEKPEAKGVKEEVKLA
Chain of HDAC-2 (Q92769 whole entry, species assumed): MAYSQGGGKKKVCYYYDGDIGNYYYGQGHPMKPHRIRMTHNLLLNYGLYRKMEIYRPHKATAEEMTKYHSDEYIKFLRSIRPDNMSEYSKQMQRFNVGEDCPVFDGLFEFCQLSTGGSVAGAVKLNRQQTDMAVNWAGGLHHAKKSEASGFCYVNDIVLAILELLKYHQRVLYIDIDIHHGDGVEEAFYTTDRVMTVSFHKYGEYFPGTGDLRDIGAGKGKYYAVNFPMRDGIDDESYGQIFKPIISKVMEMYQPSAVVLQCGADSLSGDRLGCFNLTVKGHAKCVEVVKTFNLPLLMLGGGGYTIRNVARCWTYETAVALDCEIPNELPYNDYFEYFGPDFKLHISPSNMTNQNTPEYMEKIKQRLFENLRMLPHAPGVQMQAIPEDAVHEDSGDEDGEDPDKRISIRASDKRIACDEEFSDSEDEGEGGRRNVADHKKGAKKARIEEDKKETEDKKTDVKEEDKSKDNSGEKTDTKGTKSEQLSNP
Chain of HDAC-8 (Q9BY41 whole entry, species assumed): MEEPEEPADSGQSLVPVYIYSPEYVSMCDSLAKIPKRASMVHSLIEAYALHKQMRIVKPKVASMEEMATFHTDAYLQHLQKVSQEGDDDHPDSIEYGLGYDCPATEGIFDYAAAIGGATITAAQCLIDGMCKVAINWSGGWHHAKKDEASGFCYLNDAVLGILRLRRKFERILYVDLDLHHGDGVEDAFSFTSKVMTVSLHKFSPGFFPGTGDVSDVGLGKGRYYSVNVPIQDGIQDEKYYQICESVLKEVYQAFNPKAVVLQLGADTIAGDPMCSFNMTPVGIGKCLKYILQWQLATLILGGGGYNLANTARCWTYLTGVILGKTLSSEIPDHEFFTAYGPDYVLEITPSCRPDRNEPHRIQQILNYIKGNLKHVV
Chain of HDAC-3 (O15379 whole entry, looked up, species assumed): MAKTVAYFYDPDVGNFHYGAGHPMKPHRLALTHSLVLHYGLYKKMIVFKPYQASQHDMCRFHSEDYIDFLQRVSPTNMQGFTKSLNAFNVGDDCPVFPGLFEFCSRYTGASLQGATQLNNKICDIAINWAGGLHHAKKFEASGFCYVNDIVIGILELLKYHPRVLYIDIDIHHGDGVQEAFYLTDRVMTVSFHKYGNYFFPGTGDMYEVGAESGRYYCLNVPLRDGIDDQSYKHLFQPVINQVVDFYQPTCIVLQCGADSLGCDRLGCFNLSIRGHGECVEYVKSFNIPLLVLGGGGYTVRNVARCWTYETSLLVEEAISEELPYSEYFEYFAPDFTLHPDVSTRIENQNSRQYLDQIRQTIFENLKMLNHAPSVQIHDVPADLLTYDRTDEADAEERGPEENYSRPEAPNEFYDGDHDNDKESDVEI
Chain of HDAC-3 (Q9Y618 whole entry partner, looked up, species assumed): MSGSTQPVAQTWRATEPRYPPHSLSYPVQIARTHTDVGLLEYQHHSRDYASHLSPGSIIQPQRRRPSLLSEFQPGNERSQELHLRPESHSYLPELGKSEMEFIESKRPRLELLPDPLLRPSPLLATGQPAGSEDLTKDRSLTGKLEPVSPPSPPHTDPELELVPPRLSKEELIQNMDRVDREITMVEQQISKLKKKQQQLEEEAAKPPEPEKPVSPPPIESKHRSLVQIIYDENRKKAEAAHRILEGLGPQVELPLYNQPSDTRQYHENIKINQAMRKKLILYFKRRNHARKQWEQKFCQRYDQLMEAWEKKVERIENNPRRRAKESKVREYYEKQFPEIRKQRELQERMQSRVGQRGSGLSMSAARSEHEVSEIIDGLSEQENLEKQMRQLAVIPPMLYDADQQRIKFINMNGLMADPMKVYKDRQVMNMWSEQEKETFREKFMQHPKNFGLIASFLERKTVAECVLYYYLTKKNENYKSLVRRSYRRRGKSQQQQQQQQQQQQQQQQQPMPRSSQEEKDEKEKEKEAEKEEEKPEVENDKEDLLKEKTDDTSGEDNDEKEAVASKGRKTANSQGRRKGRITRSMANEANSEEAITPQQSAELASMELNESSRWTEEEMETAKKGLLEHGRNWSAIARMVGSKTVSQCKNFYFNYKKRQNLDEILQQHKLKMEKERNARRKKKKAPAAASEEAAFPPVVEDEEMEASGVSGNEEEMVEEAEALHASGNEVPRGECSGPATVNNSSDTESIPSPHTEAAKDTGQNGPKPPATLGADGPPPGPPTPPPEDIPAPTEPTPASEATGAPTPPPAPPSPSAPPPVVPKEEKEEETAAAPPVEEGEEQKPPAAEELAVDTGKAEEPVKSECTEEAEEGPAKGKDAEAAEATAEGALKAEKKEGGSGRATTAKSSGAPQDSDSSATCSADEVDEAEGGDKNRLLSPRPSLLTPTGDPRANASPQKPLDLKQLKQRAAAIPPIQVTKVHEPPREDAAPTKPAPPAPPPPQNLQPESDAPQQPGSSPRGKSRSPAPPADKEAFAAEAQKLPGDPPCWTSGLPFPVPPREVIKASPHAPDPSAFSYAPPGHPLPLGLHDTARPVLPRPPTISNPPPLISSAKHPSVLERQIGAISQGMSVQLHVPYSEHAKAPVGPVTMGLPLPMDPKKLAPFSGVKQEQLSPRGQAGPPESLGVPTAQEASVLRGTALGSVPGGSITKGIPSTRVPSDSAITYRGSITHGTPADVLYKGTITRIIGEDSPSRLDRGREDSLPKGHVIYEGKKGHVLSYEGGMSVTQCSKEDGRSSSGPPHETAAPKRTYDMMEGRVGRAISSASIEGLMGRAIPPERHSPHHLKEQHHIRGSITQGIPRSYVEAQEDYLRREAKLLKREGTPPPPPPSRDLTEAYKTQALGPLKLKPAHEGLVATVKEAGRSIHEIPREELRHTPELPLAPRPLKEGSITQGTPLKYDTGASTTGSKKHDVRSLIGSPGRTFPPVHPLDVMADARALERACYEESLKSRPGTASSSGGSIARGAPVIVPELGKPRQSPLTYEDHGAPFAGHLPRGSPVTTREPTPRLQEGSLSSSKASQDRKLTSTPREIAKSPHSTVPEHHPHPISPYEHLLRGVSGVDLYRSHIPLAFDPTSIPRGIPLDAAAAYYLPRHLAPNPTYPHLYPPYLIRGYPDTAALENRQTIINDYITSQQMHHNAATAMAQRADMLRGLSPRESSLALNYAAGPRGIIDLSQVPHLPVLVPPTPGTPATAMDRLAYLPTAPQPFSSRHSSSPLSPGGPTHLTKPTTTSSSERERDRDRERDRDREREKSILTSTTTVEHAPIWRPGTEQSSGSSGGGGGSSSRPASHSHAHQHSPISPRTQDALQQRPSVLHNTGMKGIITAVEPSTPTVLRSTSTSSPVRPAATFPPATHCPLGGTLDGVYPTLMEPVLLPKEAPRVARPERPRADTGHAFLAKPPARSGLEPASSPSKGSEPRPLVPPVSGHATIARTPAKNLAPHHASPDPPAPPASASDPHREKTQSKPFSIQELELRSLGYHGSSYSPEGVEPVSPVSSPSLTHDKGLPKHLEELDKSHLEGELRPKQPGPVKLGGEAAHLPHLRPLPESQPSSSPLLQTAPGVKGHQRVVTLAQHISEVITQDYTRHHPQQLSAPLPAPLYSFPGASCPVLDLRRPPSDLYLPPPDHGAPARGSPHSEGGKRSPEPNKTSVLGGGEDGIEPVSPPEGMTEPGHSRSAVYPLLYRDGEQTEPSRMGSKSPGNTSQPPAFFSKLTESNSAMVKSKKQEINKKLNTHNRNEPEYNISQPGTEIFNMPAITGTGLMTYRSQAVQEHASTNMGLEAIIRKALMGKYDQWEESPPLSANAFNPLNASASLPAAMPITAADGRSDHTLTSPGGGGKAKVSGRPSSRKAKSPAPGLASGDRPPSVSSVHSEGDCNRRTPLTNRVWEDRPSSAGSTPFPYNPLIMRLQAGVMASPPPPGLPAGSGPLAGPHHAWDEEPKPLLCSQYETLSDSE

In general, IC50 refers to the midpoint of a concentration-inhibition curve. In the case of `Cn1c(CCCC(=O)O)nc2cc(N(CCCl)CCCl)ccc21` [Bendamustine], on HDAC-2, the “HDAC IC50, HDAC-2 (result in words)” value was “No activity”. Also, on HDAC-1 (Bendamustine, unit not given), the “HDAC IC50, HDAC-1 (result in words)” value was “No activity”. Besides, the “HDAC IC50, HDAC-10 (result in words)” value on HDAC-10 (HDAC-10, Bendamustine, unit not given) is reported as “No activity”. For the same molecule, the “HDAC IC50, HDAC-3 (result in words)” value at HDAC-3 (Bendamustine, unit not given) is reported as “No activity”. Also, the “HDAC IC50, HDAC-6 (result in words)” value on HDAC-6 (HDAC-6, Bendamustine, unit not given) is reported as “No activity”. For the same molecule, at HDAC-8 (HDAC-8, Bendamustine, unit not given), the “HDAC IC50, HDAC-8 (result in words)” value was “No activity”. Besides, the IC50 with MM1R worked out at 100000 nM; in the experiment on MM1S, 119000 nM; in the experiment with RPMI8226, 400000 nM.
As for `Cn1c(CCCCCCC(=O)NO)nc2cc(N(CCCl)CCCl)ccc21` [CY190602], the IC50 against HDAC-2 was found to be 9 nM; on HDAC-1, 17 nM; against HDAC-10, 72 nM; against HDAC-3, 25 nM; on HDAC-6 it was 6 nM; at HDAC-8, 107 nM. Also, the IC50 in the experiment on MM1R stood at 2660 nM; with MM1S, 1600 nM; in the experiment with RPMI8226, 4160 nM.
